Laboratory results from ChEMBL document CHEMBL5465560, “Selectivity Literature for EUbOPEN Chemogenomic Library” (2024).

Tests used:
[1] = target: T1, Ephrin type-A receptor 1 (Homo sapiens) (UniProt P21709); assay: Selectivity interaction (KinomeScan (DiscoverX)) EUB0000655a EPHA1; conditions: at 10 µM
T1 sequence (whole entry): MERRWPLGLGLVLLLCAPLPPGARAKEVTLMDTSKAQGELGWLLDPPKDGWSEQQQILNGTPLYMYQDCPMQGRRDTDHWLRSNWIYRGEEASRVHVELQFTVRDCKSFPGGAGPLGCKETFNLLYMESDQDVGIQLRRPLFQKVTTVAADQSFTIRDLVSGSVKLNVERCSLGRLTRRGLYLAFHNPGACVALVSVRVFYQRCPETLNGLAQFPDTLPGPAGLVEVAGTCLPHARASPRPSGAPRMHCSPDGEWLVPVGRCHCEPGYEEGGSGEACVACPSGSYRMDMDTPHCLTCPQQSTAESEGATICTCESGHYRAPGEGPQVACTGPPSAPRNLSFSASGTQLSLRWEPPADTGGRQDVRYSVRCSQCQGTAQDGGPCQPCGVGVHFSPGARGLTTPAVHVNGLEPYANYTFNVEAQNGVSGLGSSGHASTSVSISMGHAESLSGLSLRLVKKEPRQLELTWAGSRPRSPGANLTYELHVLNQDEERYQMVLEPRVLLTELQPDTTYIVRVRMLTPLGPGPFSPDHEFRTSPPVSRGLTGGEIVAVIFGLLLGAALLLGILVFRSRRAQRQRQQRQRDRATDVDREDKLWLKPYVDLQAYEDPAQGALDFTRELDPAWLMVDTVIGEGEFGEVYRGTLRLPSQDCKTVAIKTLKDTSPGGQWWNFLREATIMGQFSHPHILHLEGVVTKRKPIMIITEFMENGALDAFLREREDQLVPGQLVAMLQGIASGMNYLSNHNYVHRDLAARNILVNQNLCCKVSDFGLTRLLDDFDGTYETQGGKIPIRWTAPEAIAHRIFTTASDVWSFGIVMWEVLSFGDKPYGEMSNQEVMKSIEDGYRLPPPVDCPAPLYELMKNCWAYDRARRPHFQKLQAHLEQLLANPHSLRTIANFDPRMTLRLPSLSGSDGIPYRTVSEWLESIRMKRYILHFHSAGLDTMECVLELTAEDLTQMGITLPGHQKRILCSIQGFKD

[2] = target: Mitogen-activated protein kinase kinase kinase kinase 1 (Homo sapiens) (UniProt Q92918); assay: Selectivity interaction (KinomeScan (DiscoverX)) EUB0000618a MAP4K1; conditions: at 10 µM
[3] = target: Ribosomal protein S6 kinase alpha-5 (Homo sapiens) (UniProt O75582); assay: Selectivity interaction (KinomeScan (DiscoverX)) EUB0000045b RPS6KA5
[4] = target: T2, Mitogen-activated protein kinase kinase kinase 12 (Homo sapiens) (UniProt Q12852); conditions: at 10 µM
T2 sequence (whole entry): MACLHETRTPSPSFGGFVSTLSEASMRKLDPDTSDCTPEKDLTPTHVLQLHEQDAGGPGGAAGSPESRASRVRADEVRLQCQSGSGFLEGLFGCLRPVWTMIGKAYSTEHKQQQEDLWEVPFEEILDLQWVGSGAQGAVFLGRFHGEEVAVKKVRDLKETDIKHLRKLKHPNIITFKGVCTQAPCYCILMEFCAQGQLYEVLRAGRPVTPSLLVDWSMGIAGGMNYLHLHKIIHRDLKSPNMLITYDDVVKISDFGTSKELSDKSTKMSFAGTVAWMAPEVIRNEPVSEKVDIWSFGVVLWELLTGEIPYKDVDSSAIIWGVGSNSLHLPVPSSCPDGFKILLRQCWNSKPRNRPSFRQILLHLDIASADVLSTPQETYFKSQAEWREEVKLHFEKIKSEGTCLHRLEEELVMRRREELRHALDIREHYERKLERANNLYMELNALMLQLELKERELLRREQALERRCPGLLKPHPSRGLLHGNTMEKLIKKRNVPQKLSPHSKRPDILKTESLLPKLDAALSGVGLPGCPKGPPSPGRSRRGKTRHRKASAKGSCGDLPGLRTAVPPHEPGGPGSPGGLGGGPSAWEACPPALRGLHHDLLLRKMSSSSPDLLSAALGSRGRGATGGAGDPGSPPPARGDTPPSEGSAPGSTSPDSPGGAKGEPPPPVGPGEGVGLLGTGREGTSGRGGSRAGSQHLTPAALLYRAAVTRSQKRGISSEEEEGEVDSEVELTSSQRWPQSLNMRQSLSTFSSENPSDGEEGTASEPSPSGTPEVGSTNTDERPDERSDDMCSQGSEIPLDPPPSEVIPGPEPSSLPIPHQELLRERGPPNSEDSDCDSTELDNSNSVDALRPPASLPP

Chain of Ribosomal protein S6 kinase alpha-5 (Homo sapiens) (O75582 whole entry, looked up): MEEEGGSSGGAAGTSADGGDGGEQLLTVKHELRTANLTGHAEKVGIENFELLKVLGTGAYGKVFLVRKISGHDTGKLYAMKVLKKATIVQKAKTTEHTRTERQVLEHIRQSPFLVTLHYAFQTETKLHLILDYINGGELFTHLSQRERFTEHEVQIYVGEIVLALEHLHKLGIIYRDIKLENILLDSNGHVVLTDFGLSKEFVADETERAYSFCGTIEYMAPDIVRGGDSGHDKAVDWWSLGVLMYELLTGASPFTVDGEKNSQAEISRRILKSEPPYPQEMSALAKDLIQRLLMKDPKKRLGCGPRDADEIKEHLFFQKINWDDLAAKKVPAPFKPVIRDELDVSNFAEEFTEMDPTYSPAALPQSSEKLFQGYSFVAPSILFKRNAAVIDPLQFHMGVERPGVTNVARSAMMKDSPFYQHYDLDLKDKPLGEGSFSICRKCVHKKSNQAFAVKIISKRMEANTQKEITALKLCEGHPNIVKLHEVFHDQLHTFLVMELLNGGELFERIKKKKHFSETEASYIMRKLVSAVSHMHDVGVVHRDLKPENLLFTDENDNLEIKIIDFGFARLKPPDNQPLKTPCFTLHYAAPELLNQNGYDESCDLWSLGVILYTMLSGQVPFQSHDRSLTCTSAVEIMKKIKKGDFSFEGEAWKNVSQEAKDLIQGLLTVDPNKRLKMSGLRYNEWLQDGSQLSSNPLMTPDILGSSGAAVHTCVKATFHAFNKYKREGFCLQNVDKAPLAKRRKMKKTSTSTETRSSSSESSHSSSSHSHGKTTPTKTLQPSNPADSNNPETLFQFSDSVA
Chain of Mitogen-activated protein kinase kinase kinase kinase 1 (Homo sapiens) (Q92918 whole entry, looked up): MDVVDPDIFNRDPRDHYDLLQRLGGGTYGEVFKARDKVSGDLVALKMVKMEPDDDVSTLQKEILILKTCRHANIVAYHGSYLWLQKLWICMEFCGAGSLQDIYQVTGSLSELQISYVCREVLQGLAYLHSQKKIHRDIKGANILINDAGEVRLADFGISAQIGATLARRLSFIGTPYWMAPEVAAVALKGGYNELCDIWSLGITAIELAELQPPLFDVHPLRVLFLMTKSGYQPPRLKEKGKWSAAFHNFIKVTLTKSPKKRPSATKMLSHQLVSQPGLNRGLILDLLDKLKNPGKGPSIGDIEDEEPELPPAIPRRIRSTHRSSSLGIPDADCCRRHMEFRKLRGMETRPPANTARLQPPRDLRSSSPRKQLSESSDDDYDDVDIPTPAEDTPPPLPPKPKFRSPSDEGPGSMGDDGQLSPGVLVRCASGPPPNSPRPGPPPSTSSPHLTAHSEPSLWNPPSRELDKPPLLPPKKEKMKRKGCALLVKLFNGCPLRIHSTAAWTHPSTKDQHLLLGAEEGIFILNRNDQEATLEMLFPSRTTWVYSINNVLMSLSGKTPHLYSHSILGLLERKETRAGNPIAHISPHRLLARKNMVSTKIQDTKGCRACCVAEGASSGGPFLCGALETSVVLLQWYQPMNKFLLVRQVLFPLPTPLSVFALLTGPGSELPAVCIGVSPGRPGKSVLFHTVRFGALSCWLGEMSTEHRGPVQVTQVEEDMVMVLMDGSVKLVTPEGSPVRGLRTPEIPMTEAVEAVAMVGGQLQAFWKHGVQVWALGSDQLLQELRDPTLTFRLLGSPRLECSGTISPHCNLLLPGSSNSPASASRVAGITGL

For CN(C)CCOc1ccc(-c2nc(-c3ccncc3)c(-c3ccc4c(c3)CC/C4=N\O)[nH]2)cc1, the % of control [1] was 91%.

O[C@H]1CC[C@H](Nc2ncc3nc(Nc4c(F)cc(F)cc4F)n([C@H]4CCOC4)c3n2)CC1 showed a % of control [2] of 83%.

Work on C=CC(=O)Nc1cc(-n2c(=O)ccc3cnc4ccc(-c5ccc(NS(C)(=O)=O)cc5)cc4c32)ccc1C yielded a % of control ([3]; at 1 µM) of 100% and a % of control ([3]; at 10 µM) of 100%.

Work on Cc1cc([C@@H](C)Nc2ccccc2C(=O)O)c2nc(N3CCOCC3)cc(=O)n2c1 [AZD-6482] yielded a % of control [4] of 85%.
